Experimental data: patent publication US20200190592A1, “PME-1 AS A BIOMARKER TO PREDICT AND DIAGNOSE AN INCREASED RISK OF ENDOMETRIAL CANCER AND GENE SILENCING OF PME-1 TO INHIBIT EPITHELIAL TO MESENCHYMAL TRANSITION” (Medical Diagnostic Laboratories, L.L.C., priority 2018, published 2020)

How the values were obtained:
[1] = test system: PP2A; experiment: PP2A phosphatase assay on RL95-2 whole cell extract; format: cell-based, human; details: RL95-2 cells, 500 μg whole cell extract, vs non-targeting control
Protocol: Because PME-1 is a known inhibitor of PP2A, we confirmed in this study that depletion of PME-1 by siRNA led to an increase in PP2A activity in cells. To do so, we treated RL95-2 cells with either non-targeting siRNA (Control) or siRNA against PPME1. PP2A activity was monitored using a phosphatase assay (R&D Systems Duo IC Set phosphatase assay kit). In the phosphatase assay, we used 500 μg of whole cell extract and followed the manufacturer's recommendations.
Whole cell lysates were used with the DuoSet IC PP2A Phosphatase Assay Kit (R&D Systems). Procedure was carried out as per kit instructions with 500 μg protein and the absorbance was measured at 620 nm. The assay was repeated twice with similar results.

[2] = test system: WNT3 and WNT3A; experiment: qRT-PCR of WNT3 and WNT3A expression in RL95-2 cells; format: cell-based, human; details: RL95-2, normalized to 18S
Protocol: Using RL95-2 endometrial cancer cells, we overexpressed PME-1 (FIG. 21A) or depleted PME-1 with shRNA (FIG. 21B) and confirmed that PME-1 was appropriately expressed.
Total RNA was extracted with Qiagen RNAEasy kit from RL95-2 cells. cDNA was synthesized using 500 ng-1 μg of RNA and SuperScript VILO c-DNA mix (Life Technologies). Taqman probes and PCR-mix were purchased from Life Technologies. All samples were run in triplicates. Results are representative of three independent experiments in which genes of interest were normalized to the house-keeping gene, 18S or GAPDH, where fold-change was calculated using the ddCt method.

shPPME1 no. 2: shRNA targeting PPME1, SEQ ID NO: 2: GCAGCGATTATTAGTAGAGTT, bp 289-309; used for all subsequent experiments (guide GCAGCGATTATTAGTAGAGTT; listed as Homo sapiens)
increase in PP2A activity [1]: 30 fold
WNT3 and WNT3A expression [2]: significantly decreased
